Here are results for 21 compounds from patent US20060276464A1, “Diarylsulfone sulfonamides and use thereof” (Wyeth, priority 2005, published 2006).

The target of data set [1] is T1, SFRP-1 (Homo sapiens, UniProt Q8N474).
T1 sequence (Q8N474 32-314): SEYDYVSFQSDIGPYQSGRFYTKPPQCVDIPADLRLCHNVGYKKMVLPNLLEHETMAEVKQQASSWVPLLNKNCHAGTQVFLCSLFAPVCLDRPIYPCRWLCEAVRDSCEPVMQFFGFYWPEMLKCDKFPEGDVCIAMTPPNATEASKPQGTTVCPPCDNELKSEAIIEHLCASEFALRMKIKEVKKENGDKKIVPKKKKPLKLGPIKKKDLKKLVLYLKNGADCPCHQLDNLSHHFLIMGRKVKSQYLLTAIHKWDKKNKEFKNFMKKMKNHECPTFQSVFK
Briefly: Fluorescence polarization binding assay (competitive displacement of a probe compound from SFRP-1).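 Note: test compound competes with a fluorescent probe held by SFRP-1, seen as a drop in probe anisotropy after incubation in darkness, with anisotropy as function of rising compound dose.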 To be noted: fluorescence anisotropy, 45 nM SFRP-1, 20 nM probe. (In general: Fluorescence polarisation rises when a labelled molecule tumbles more slowly, as on binding a larger partner.)

In data set [2] the target is T1, SFRP-1. Nature of the data set: Cell-based assay for in vitro measurement of SFRP-1/SARP2 antagonist activity (U2OS cells co-transfected with 16x TCF-tk-Luciferase reporter, Wnt and hSFRP-1).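 For all read-outs here: U2OS cells co-transfected with a TCF-tk luciferase reporter, a Wnt vector, hSFRP-1 or empty vector and CMV-βgal, luciferase luminescence read in cell lysates alongside βgal activity.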 To be noted: for fold induction at 15 µM / fold induction at 10 µM: U2OS; for fold induction at 15 µM: single dose, luciferase reporter; for fold induction at 10 µM: read-out: Fold Induction with SFRP-1, U2OS cells, single dose 10 μM, luciferase reporter, fold induction over SFRP-1 control.

[3] abbreviates: read-out: Fold Induction with SFRP-1, Conc 15 μM, fold induction over SFRP-1 control, cells with SFRP-1.
[4] abbreviates: read-out: Fold Induction without SFRP-1, Conc 15 μM, cells without SFRP-1 (specificity control).

pEC50, pIC50: −log10 of the molar value. Where two headings read alike, the source gives them in different places.

What is called pIC50 is the negative decadic logarithm of the IC50, by convention in mol/L. What is called melting point is the temperature of the solid-liquid transition. Compound `CC(C)c1cc(C(C)C)c(S(=O)(=O)c2ccccc2)cc1S(=O)(=O)NCCc1ccncc1` [Example 617, 2,4-Diisopropyl-5-(phenylsulfonyl)-N-(2-pyridin-4-ylethyl)benzenesulfonamide] displayed a melting point of 178 to 180 °C. This compound also had a pIC50 in data set [1] of 6.00. Also, the fold induction at 15 µM in data set [2] (setting [3]) was 2. Also, the fold induction at 15 µM in data set [2] (setting [4]) came to 1.2.

`CC(C)c1cc(C(C)C)c(S(=O)(=O)c2ccc(F)cc2)cc1S(=O)(=O)NC1CCOCC1` [Example 620, 5-[(4-Fluorophenyl)sulfonyl]-2,4-diisopropyl-N-(tetrahydro-2H-pyran-4-yl)benzenesulfonamide] returned a melting point of 183 to 186 °C. This compound showed a pIC50 in data set [1] of 6.00. The fold induction at 15 µM in data set [2] (setting [3]) stood at 2.7. The fold induction at 15 µM in data set [2] (setting [4]) came to 1.

Turning to `CC(C)c1cc(C(C)C)c(S(=O)(=O)c2ccc(F)cc2)cc1S(=O)(=O)NCC1CCOCC1` [Example 629, 5-[(4-Fluorophenyl)sulfonyl]-2,4-diisopropyl-N-(tetrahydro-2H-pyran-4-ylmethyl)benzenesulfonamide], the melting point lay within 200 to 202 °C. The compound also gave a pIC50 in data set [1] of 5.52. In addition, the fold induction at 15 µM in data set [2] (setting [3]) turned out to be 2.1. In data set [2] (setting [4]), the fold induction at 15 µM is 1.

As for `CC(C)c1cc(C(C)C)c(S(=O)(=O)c2ccc(F)cc2)cc1S(=O)(=O)NCCC1CCOCC1` [Example 630, 5-[(4-Fluorophenyl)sulfonyl]-2,4-diisopropyl-N-[2-(tetrahydro-2H-pyran-4-yl)ethyl]benzenesulfonamide], the melting point is 141 to 143 °C. The negative logarithm of the IC50 (pIC50) in data set [1] is 5.40. Moreover, in data set [2] (setting [3]), the fold induction at 15 µM turned out to be 2.2. Moreover, in data set [2] (setting [4]), the fold induction at 15 µM worked out at 1.

`CC(C)c1cc(C(C)C)c(S(=O)(=O)c2ccc(F)cc2)cc1S(=O)(=O)NCCc1ccccn1` [Example 631, 5-[(4-Fluorophenyl)sulfonyl]-2,4-diisopropyl-N-(2-pyridin-2-ylethyl)benzenesulfonamide] registered a melting point of 159 to 161 °C. The same compound had a pIC50 in data set [1] of 5.40. Besides, in data set [2] (setting [3]), the fold induction at 15 µM was determined as 2.4. Moreover, in data set [2] (setting [4]), the fold induction at 15 µM came out at 1.

For `CC(C)c1cc(C(C)C)c(S(=O)(=O)c2ccc(F)cc2)cc1S(=O)(=O)NCCc1cccnc1` [Example 632, 5-[(4-Fluorophenyl)sulfonyl]-2,4-diisopropyl-N-(2-pyridin-3-ylethyl)benzenesulfonamide], the melting point is 148 to 150 °C. Also, the pIC50 in data set [1] was 5.59. In addition, the fold induction at 15 µM in data set [2] (setting [3]) came out at 3. For the same compound, the fold induction at 15 µM in data set [2] (setting [4]) was determined as 1.

By pEC50 is commonly meant −log10 of the EC50, conventionally taken in molar units. Lower therefore signals a high EC50. `CC(C)c1ccc(S(=O)(=O)c2ccccc2)cc1S(=O)(=O)NC1CCN(C(=O)c2ccccc2)CC1` [Example 802, N-(1-Benzoylpiperidin-4-yl)-2-isopropyl-5-(phenylsulfonyl)benzenesulfonamide] returned a melting point of 225 °C. In addition, in data set [1], the pIC50 was 6.77. Further, in data set [2], the pEC50 is 6.52 and the fold induction at 10 µM was found to be 2.6.

In turn, `COc1ccccc1C(=O)N1CCC(NS(=O)(=O)c2cc(S(=O)(=O)c3ccccc3)ccc2C(C)C)CC1` [Example 803, 2-Isopropyl-N-[1-(2-methoxybenzoyl)piperidin-4-yl]-5-(phenylsulfonyl)benzenesulfonamide] showed a melting point of 160 to 162 °C. The same compound showed a pIC50 in data set [1] of 6.54. Besides, in data set [2], the fold induction at 10 µM came out at 3.2.

Compound `CC(C)c1ccc(S(=O)(=O)c2ccccc2)cc1S(=O)(=O)NC1CCN(C(=O)c2cccc(F)c2)CC1` [Example 804, N-[1-(3-Fluorobenzoyl)piperidin-4-yl]-2-isopropyl-5-(phenylsulfonyl)benzenesulfonamide] registered a melting point of 215 to 218 °C. For the same compound, the pIC50 in data set [1] was 6.52. The fold induction at 10 µM in data set [2] is 3.

The compound `CC(C)c1ccc(S(=O)(=O)c2ccccc2)cc1S(=O)(=O)NC1CCN(C(=O)c2ccc(F)cc2)CC1` [Example 805, N-[1-(4-Fluorobenzoyl)piperidin-4-yl]-2-isopropyl-5-(phenylsulfonyl)benzenesulfonamide] had a melting point of 218 to 220 °C. The pIC50 in data set [1] is 6.40. Moreover, in data set [2], the pEC50 is 6.29 and the fold induction at 10 µM is 3.

On to `CC(C)c1ccc(S(=O)(=O)c2ccccc2)cc1S(=O)(=O)NC1CCN(C(=O)c2ccccc2F)CC1` [Example 806, N-[1-(2-Fluorobenzoyl)piperidin-4-yl]-2-isopropyl-5-(phenylsulfonyl)benzenesulfonamide], for which the melting point fell in the range of 210 to 212 °C. In data set [1], the pIC50 is 6.64. In addition, in data set [2], the pEC50 was 6.62 and the fold induction at 10 µM amounted to 2.8.

`CC(C)c1ccc(S(=O)(=O)c2ccccc2)cc1S(=O)(=O)NC1CCN(C(=O)c2ccc(C(F)(F)F)cc2)CC1` [Example 807, 2-Isopropyl-5-(phenylsulfonyl)-N-{1-[4-(trifluoromethyl)benzoyl]piperidin-4-yl}benzenesulfonamide] yielded a melting point of 140 to 142 °C. In data set [1], this compound had a pIC50 of 6.05. Besides, in data set [2], the fold induction at 10 µM is 3.

In turn, `CC(C)c1ccc(S(=O)(=O)c2ccccc2)cc1S(=O)(=O)NC1CCN(C(=O)c2cccc3ccccc23)CC1` [Example 808, 2-Isopropyl-N-[1-(1-naphthoyl)piperidin-4-yl]-5-(phenylsulfonyl)benzenesulfonamide] returned a melting point of 163 to 165 °C. The pIC50 in data set [1] was 6.30. In data set [2], the pEC50 was 6.02 and the fold induction at 10 µM came to 3.7.

`CC(C)c1ccc(S(=O)(=O)c2ccccc2)cc1S(=O)(=O)NC1CCN(C(=O)c2ccc3ccccc3c2)CC1` [Example 809, 2-Isopropyl-N-[1-(2-naphthoyl)piperidin-4-yl]-5-(phenylsulfonyl)benzenesulfonamide] returned a melting point of 130 to 132 °C. In data set [1], the pIC50 is 5.96. Also, the fold induction at 10 µM in data set [2] is 2.8.

Compound `CC(C)c1ccc(S(=O)(=O)c2ccccc2)cc1S(=O)(=O)NC1CCN(C(=O)c2cccc(C#N)c2)CC1` [Example 810, N-[1-(3-Cyanobenzoyl)piperidin-4-yl]-2-isopropyl-5-(phenylsulfonyl)benzenesulfonamide] showed a melting point of 120 to 122 °C. In data set [1], this compound had a pIC50 of 6.54. Moreover, in data set [2], the pEC50 was 6.09 and the fold induction at 10 µM was found to be 3.1.

Compound `CC(C)c1ccc(S(=O)(=O)c2ccccc2)cc1S(=O)(=O)NC1CCN(C(=O)c2ccc(C#N)cc2)CC1` [Example 811, N-[1-(4-Cyanobenzoyl)piperidin-4-yl]-2-isopropyl-5-(phenylsulfonyl)benzenesulfonamide] gave a melting point of 136 to 138 °C. For the same compound, in data set [1], the pIC50 was 6.52. Besides, in data set [2], the fold induction at 10 µM was 2.6.

For the compound `CC(C)c1ccc(S(=O)(=O)c2ccccc2)cc1S(=O)(=O)NC1CCN(C(=O)c2ccc(C(C)(C)C)cc2)CC1` [Example 812, N-[1-(4-tert-Butylbenzoyl)piperidin-4-yl]-2-isopropyl-5-(phenylsulfonyl)benzenesulfonamide], the melting point was 150 to 152 °C. In data set [1], this compound had a pIC50 of 6.22. Further, in data set [2], the fold induction at 10 µM came out at 3.9.

The compound `CCOc1ccc2ccccc2c1C(=O)N1CCC(NS(=O)(=O)c2cc(S(=O)(=O)c3ccccc3)ccc2C(C)C)CC1` [Example 813, N-[1-(2-Ethoxy-1-naphthoyl)piperidin-4-yl]-2-isopropyl-5-(phenylsulfonyl)benzenesulfonamide] showed a melting point of 164 to 166 °C. Further, in data set [1], the pIC50 is 6.40. Besides, in data set [2], the pEC50 was 6.17 and the fold induction at 10 µM was 3.9.

For the compound `CCCc1ccc(S(=O)(=O)c2ccccc2)cc1S(=O)(=O)NCCc1ccncc1` [Example 859, 5-(Phenylsulfonyl)-2-propyl-N-(2-pyridin-4-ylethyl)benzenesulfonamide], the melting point lay within 155 to 157 °C. Further, in data set [1], the pIC50 is 6.22. For the same compound, in data set [2], the pEC50 is 5.81 and the fold induction at 10 µM was found to be 3.6.

`CCCc1ccc(S(=O)(=O)c2ccc(F)cc2)cc1S(=O)(=O)NCCc1cccnc1` [Example 874, 5-[(4-Fluorophenyl)sulfonyl]-2-propyl-N-(2-pyridin-3-ylethyl)benzenesulfonamide]: the melting point fell in the range of 111 to 113 °C. In data set [1], the pIC50 was 5.71. For the same compound, in data set [2], the pEC50 is 5.70 and the fold induction at 10 µM was 3.1.

`CCCc1ccc(S(=O)(=O)c2ccc(F)cc2)cc1S(=O)(=O)NCCc1ccncc1` [Example 875, 5-[(4-Fluorophenyl)sulfonyl]-2-propyl-N-(2-pyridin-4-ylethyl)benzenesulfonamide] returned a melting point of 160 to 162 °C. The pIC50 in data set [1] is 6.22. Moreover, in data set [2], the pEC50 is 5.18 and the fold induction at 10 µM was determined as 1.6.
